Source: ChEMBL document CHEMBL1143638, “Pyrazolopyridinones as functionally selective GABAA ligands” (Bioorg Med Chem Lett, 2005)

What was measured:
[1] = biological target: T1, GABA-A receptor; alpha-1/beta-3/gamma-2 (Homo sapiens, UniProt P14867+P18507+P28472); assay: Inhibition of [3H]-Ro- 15-1788 binding to human GABA-A receptor alpha-1-beta-3-gamma-2 expressed in L(tk-) cells; assay type: cell-based
T1 sequence (P14867 whole entry): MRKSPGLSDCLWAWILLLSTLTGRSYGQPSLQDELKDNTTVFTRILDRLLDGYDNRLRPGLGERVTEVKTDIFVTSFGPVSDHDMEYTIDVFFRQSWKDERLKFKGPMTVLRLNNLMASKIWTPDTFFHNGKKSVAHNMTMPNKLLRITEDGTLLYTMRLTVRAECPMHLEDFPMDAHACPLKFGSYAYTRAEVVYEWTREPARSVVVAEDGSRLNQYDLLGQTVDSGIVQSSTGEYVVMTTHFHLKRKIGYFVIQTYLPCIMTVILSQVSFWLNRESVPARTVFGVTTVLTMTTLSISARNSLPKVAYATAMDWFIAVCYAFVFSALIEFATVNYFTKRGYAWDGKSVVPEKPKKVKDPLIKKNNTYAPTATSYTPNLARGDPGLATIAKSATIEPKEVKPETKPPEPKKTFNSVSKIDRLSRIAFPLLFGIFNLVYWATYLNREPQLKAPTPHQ
T1 sequence (P18507 whole entry): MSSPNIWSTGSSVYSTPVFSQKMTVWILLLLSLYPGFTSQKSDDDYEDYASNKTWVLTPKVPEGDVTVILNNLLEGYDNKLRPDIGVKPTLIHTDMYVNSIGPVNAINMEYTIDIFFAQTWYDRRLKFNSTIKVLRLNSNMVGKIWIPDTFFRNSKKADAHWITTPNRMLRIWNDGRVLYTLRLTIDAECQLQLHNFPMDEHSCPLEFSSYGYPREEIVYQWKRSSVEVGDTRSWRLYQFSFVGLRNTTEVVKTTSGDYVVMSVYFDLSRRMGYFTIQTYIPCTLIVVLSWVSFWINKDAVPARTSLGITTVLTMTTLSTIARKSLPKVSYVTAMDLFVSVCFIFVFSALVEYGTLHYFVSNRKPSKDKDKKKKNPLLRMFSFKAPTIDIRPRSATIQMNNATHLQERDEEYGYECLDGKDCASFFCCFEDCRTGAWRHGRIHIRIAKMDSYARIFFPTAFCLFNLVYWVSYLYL
T1 sequence (P28472 whole entry): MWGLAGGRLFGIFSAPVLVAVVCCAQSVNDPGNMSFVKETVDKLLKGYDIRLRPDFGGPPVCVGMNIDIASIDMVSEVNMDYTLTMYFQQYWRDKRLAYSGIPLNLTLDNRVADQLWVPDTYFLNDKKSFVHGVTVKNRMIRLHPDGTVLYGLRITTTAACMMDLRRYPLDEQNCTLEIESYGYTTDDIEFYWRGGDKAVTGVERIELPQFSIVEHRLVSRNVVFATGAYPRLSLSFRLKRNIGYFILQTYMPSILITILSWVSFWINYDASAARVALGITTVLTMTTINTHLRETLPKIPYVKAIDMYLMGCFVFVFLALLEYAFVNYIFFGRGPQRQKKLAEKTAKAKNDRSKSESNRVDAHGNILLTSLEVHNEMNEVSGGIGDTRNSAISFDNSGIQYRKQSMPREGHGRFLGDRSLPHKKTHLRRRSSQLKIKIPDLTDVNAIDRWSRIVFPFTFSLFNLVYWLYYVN

[2] = biological target: T2, GABA-A receptor; alpha-3/beta-3/gamma-2 (Homo sapiens, UniProt P18507+P28472+P34903); assay: Inhibition of [3H]-Ro- 15-1788 binding to human GABA-A receptor alpha-3-beta-3-gamma-2 expressed in L(tk-) cells; assay type: cell-based
T2 sequence (P18507 whole entry): T1 sequence (P18507 whole entry)
T2 sequence (P28472 whole entry): T1 sequence (P28472 whole entry)
T2 sequence (P34903 whole entry): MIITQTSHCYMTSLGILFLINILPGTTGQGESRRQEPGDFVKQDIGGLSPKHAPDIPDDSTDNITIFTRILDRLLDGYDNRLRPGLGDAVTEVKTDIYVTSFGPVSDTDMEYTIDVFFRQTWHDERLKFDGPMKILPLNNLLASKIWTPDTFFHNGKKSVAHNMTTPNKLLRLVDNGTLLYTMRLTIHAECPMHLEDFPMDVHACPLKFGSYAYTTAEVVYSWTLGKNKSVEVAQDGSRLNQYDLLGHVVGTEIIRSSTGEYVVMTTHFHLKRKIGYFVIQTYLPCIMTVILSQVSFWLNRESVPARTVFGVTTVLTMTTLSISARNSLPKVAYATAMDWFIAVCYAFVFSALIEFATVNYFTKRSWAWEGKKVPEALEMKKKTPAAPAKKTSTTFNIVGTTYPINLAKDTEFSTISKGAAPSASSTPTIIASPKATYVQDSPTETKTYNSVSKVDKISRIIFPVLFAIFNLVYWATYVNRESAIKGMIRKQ

[3] = biological target: T3, GABA-A receptor; alpha-1/beta-3/gamma-2 (Homo sapiens) (UniProt P14867+P18507+P28472); assay: Effective current to modulate GABA-mediated chloride ion flux through GABA-A receptor alpha-1-beta-3-gamma-2 expressed in L(tk-) cells; assay type: functional, cell-based
[4] = biological target: T4, GABA-A receptor; alpha-3/beta-3/gamma-2 (Homo sapiens) (UniProt P18507+P28472+P34903); assay: Effective current to modulate GABA-mediated chloride ion flux through GABA-A receptor alpha-3-beta-3-gamma-2 expressed in L(tk-) cells; assay type: functional, cell-based
[5] = biological target: T3, GABA-A receptor; alpha-1/beta-3/gamma-2 (Homo sapiens); assay: Effective concentration to modulate GABA-mediated chloride ion flux through GABA-A receptor alpha-1-beta-3-gamma-2 expressed in L(tk-) cells; assay type: functional, cell-based
[6] = biological target: T4, GABA-A receptor; alpha-3/beta-3/gamma-2 (Homo sapiens); assay: Effective concentration to modulate GABA-mediated chloride ion flux through GABA-A receptor alpha-3-beta-3-gamma-2 expressed in L(tk-) cells; assay type: functional, cell-based

SMILES: O=c1c2c[nH]c3c(c-2nn1-c1ccc(Cl)cc1)CCCC3
- Ki [1]: 0.29 nM
- Ki [2]: 1.5 nM
- Efficacy [3]: 0.21
- Efficacy [4]: 0.45
- Efficacy [5]: 0.14
- Efficacy [6]: 0.38
